Values of other authors in US8198264B2, “Method for treating head and neck cancer” (National Cancer Center, priority 2006, dated 2012).

Legend:
[1] = system: squamous cell head and neck cancer; conditions: regimen combined with radiotherapy, meta-analysis
[2] = system: advanced/relapsed head and neck cancer; conditions: 5-FU drug alone, continuous intravenous infusion

Row | Compound | odds ratio (add-on effect on survival) [1] | response rate [2] [%]
1 | O=c1[nH]cc(F)c(=O)[nH]1 [5-FU, 5-fluorouracil] | 0.66 | 15
2 | CO[C@@]12[C@H](COC(N)=O)C3=C(C(=O)C(C)=C(N)C3=O)N1C[C@@H]1N[C@@H]12 [Mitomycin C] | 0.54 | 
3 | Bleomycin | 0.80 | 
